Assay results published in US12624018B1, “Inhibitors of RIPK2 and medical uses thereof” (Odyssey Therapeutics, Inc., priority 2022, dated 2026).

Columns and labels:
[1] = target: T1, RIPK2 and XIAP protein-protein interaction (Homo sapiens, UniProt O43353); assay: Inhibition of the interaction of RIPK2 with XIAP (NanoBRET in HEK293T cells); format: cell-based; details: RIPK2 HaloTag / XIAP NanoLuc, read-out: NanoBRET Scaffolding IC50
T1 construct: the N-terminus of full-length RIPK2 was appended with the HaloTag fusion protein; expressed in transfected cells; host or cells: HEK293T
T1 sequence (O43353 whole entry, the tested form may be a part): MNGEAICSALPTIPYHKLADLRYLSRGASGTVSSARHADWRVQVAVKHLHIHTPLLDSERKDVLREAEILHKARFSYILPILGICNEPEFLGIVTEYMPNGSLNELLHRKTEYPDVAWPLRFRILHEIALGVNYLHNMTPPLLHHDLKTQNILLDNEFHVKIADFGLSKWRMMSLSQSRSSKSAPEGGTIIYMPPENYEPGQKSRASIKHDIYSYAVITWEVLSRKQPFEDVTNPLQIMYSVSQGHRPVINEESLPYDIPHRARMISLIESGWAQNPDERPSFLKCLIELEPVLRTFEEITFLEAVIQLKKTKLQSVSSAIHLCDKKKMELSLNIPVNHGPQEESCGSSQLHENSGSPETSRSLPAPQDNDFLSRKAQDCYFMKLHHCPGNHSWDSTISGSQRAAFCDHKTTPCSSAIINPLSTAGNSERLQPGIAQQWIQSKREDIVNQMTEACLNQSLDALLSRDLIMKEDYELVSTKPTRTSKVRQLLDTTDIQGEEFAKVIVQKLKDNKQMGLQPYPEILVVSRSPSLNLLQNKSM
Description: An assay measuring the RIPK2 and XIAP protein-protein interaction was generated using the NanoBRET protein:protein interaction system (Promega) which measures the energy transfer from a bioluminescent protein donor (NanoLuc fusion protein) to a fluorescent protein acceptor (Halotag fusion protein). In this assay, the C-terminus of full-length XIAP was appended with the NanoLuc fusion protein and the N-terminus of full-length RIPK2 was appended with the HaloTag fusion protein. Assay medium consisted of Opti-MEM I reduced serum medium with no phenol red plus 4% heat inactivated FBS. Transfection reagents were combined in a microfuge tube as follows: 400 μL of assay medium, 8 μL of vector with N-terminus of RIPK2 HaloTag fusion protein (vector concentration at 1 μg/μL), 0.8 μL of vector with C-terminus of XIAP NanoLuc fusion protein (vector concentration at 1 μg/μL), and 24 μL of FuGENE HD transfection reagent (Promega, catalogue number E2312). […] Test compounds were prepared into a 10 mM DMSO solution and were serially diluted into 10 points using a 3-fold dilution in a 384 well plate using a TECAN EV0200.
Method: HEK293T cells were transfected with the RIPK2 HaloTag fusion and XIAP NanoLuc fusion vectors in suspension. […] Transfection reagents were pre-mixed and incubated at room temperature for 30 minutes. Then the total transfection reagent mixture was added dropwise to the 16 mL cell suspension and mixed gently. 40 μL of the cells and transfection reagent suspension was plated into a white 384 well plate and incubated at 37° C. in a CO2 incubator for 24 hours. […] Lastly, a 3× solution of NanoBRET Nano-Glo substrate in Opti-MEM I reduced serum media (no phenol red; 20 μL total volume) was added to each well and incubated for 2-3 minutes at room temperature. The plate was then measured using 460 nm filter (donor emission) and 618 nm filter (acceptor emission) in an EnVision multimode plate reader (PerkinElmer). The NanoBRET ratio values were determined by dividing the acceptor emission value by the donor emission value for each sample.

[2] = target: T2, RIPK2 enzyme (Homo sapiens, UniProt O43353); assay: RIPK2 inhibition (ADP-Glo Kinase Assay); format: biochemical; details: RIPK2 5 nM, ATP 150 μM, MBP substrate, read-out: RIPK2 IC50
T2 construct: purchased Carna 09-128
T2 sequence (O43353 1-299 limits assumed): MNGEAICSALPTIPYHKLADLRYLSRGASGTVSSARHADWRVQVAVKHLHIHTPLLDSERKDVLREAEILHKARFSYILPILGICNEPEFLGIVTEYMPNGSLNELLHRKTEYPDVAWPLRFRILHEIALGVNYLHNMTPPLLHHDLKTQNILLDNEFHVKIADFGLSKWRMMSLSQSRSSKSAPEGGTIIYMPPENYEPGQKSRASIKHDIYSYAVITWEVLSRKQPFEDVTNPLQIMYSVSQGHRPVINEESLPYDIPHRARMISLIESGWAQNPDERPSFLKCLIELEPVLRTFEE
Method in brief: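 Human RIPK2 (5 nM) preincubated with compound 30 min at room temperature in 50 mM HEPES pH 7.5, 10 mM MgCl2, 2 mM DTT, 1 mM EGTA, 0.01% Brij-35, 0.05% BSA; native swine MBP as substrate. ADP formed quantified by ADP-Glo luminescence; percent inhibition relative to DMSO and no-enzyme controls.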

[3] = test system: human NOD2 signaling; assay: Inhibition of human NOD2 signaling in HEK-Blue-hNOD2 cells (L18-MDP stimulated, SEAP reporter); format: cell-based; details: Homo sapiens, HEK-Blue hNOD2, HEK-Blue-hNOD2 cells, NOD2 ligand stimulation, SEAP reporter; read-out: hNOD2 IC50
Method in brief: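 HEK-Blue-hNOD2 cells (HEK293 with NOD2 and SEAP reporter), 12500/well, treated with 10-point 3-fold compound dilutions plus L18-MDP 0.5 ng/mL final, 24 h at 37 °C. Supernatant SEAP read with QUANTI-Blue after 3 h at 620 nm; IC50 by 4-parameter fit vs DMSO±L18-MDP controls.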

Compound | IC50 [1] | IC50 [2] | IC50 [3]
Cc1nnc(-c2ccc3nccc(Oc4cc(F)c(CC(=O)Nc5cnn(C(C)(C)C)c5)cc4C)c3c2)o1 [Compound 482, N-(1-(tert-butyl)-1H-pyrazol-4-yl)-2-(2-fluoro-5-methyl-4-((6-(5-methyl-1,3,4-oxadiazol-2-yl)quinolin-4-yl)oxy)phenyl)acetamide] | 4.6 nM | < 2.5 nM | 0.3 nM
Cc1cc(CC(=O)Nc2cnn(C(C)(C)C)c2)ccc1Oc1ccnc2ccc(C(N)=O)cc12 [Compound 487, 4-(4-(2-((1-(tert-butyl)-1H-pyrazol-4-yl)amino)-2-oxoethyl)-2-methylphenoxy)quinoline-6-carboxamide] | 47.5 nM | < 2.5 nM | 0.3 nM
CNC(=O)c1ccc2nccc(Oc3ccc(CC(=O)Nc4cnn(C(C)(C)C)c4)cc3C)c2c1 [Compound 488, 4-(4-(2-((1-(tert-butyl)-1H-pyrazol-4-yl)amino)-2-oxoethyl)-2-methylphenoxy)-N-methylquinoline-6-carboxamide] | 3.4 nM | < 2.5 nM | 0.2 nM
Cc1cc(CC(=O)Nc2cnn(C(C)(C)C)c2)ccc1Oc1ccnc2cc(F)c(C(N)=O)cc12 [Compound 489, 4-(4-(2-((1-(tert-butyl)-1H-pyrazol-4-yl)amino)-2-oxoethyl)-2-methylphenoxy)-7-fluoroquinoline-6-carboxamide] | 7.1 nM | < 2.5 nM | 0.1 nM
CNC(=O)c1cc2c(Oc3ccc(CC(=O)Nc4cnn(C(C)(C)C)c4)cc3C)ccnc2cc1F [Compound 490, 4-(4-(2-((1-(tert-butyl)-1H-pyrazol-4-yl)amino)-2-oxoethyl)-2-methylphenoxy)-7-fluoro-N-methylquinoline-6-carboxamide] | 24.2 nM | < 2.5 nM | 0.1 nM
[2H]C([2H])([2H])NC(=O)c1cc2c(Oc3cc(F)c(CC(=O)Nc4cnn(C(C)(C)C)c4)cc3C)ccnc2cc1F [Compound 494, 4-(4-(2-((1-(tert-butyl)-1H-pyrazol-4-yl)amino)-2-oxoethyl)-5-fluoro-2-methylphenoxy)-7-fluoro-N-(methyl-d3)quinoline-6-carboxamide] | 20.5 nM | < 2.5 nM | 0.4 nM
Cc1cc(CC(=O)Nc2cnn(C(C)(C)C)c2)ccc1Oc1ccnc2cc(C)c(S(C)(=O)=O)cc12 [Compound 495, N-(1-(tert-butyl)-1H-pyrazol-4-yl)-2-(3-methyl-4-((7-methyl-6-(methylsulfonyl)quinolin-4-yl)oxy)phenyl)acetamide] | 70.8 nM | < 2.5 nM | 0.5 nM
Cc1cc(CC(=O)Nc2cnn(C(C)(C)C)c2)c(F)cc1Oc1ccnc2cc(C)c(S(C)(=O)=O)cc12 [Compound 496, N-(1-(tert-butyl)-1H-pyrazol-4-yl)-2-(2-fluoro-5-methyl-4-((7-methyl-6-(methylsulfonyl)quinolin-4-yl)oxy)phenyl)acetamide] | 127 nM | < 2.5 nM | 0.5 nM
CC(C)(C)n1cc(NC(=O)Cc2cc(Cl)c(Oc3ccnc4ccc(C(N)=O)cc34)cc2F)cn1 [Compound 497, 4-(4-(2-((1-(tert-butyl)-1H-pyrazol-4-yl)amino)-2-oxoethyl)-2-chloro-5-fluorophenoxy)quinoline-6-carboxamide] | 10.8 nM | < 2.5 nM | 0.6 nM
CNC(=O)c1ccc2nccc(Oc3cc(F)c(CC(=O)Nc4cnn(C(C)(C)C)c4)cc3Cl)c2c1 [Compound 498, 4-(4-(2-((1-(tert-butyl)-1H-pyrazol-4-yl)amino)-2-oxoethyl)-2-chloro-5-fluorophenoxy)-N-methylquinoline-6-carboxamide] | 13.7 nM | < 2.5 nM | 0.4 nM
Cc1cc(CC(=O)Nc2cnn(C34CC(C3)C4)c2)ccc1Oc1ccnc2ccc(C(N)=O)cc12 [Compound 499, 4-(4-(2-((1-(bicyclo[1.1.1]pentan-1-yl)-1H-pyrazol-4-yl)amino)-2-oxoethyl)-2-methylphenoxy)quinoline-6-carboxamide] | 21.9 nM | < 2.5 nM | 1.1 nM
